Where a SMILES comes first, the peptide text is derived from it. [ ]: non-standard residue; d: D form. Tle = CC(C)(C)[C@H](N)C(=O)O; Aib = CC(C)(N)C(=O)O
Columns and labels:
[1] = Stability in mouse plasma assessed as parent compound remaining after 24 hrs; format: ADME, cell-free; settings: read-out: Stability
[2] = Stability in human plasma assessed as parent compound remaining after 24 hrs; format: ADME, cell-free; settings: read-out: Stability

CC(=O)N[C@@H](Cc1ccccc1)C(=O)N[C@@H](CCC(N)=O)C(=O)N[C@@H](CO)C(=O)N[C@@H](CCCCN)C(=O)N1CCC[C@@H]1C(=O)N[C@@H](CC(N)=O)C(=O)N[C@H](C(=O)N[C@@H](Cc1cnc[nH]1)C(=O)N[C@H](C(=O)N[C@@H](CC(=O)O)C(=O)N[C@H](C)C(=O)N[C@@H](Cc1ccc(O)cc1)C(=O)N[C@@H](Cc1ccccc1)C(=O)N[C@@H](CCC(=O)O)C(=O)N[C@@H](CCCNC(=N)N)C(=O)N[C@@H](CC(C)C)C(=O)NC(C)(C)C(=O)N[C@@H]1CSSCCNC(=O)[C@H](CC(C)C)NC(=O)[C@H](CCCCN)NC1=O)C(C)(C)C)C(C)C
remaining at 24 h [1]: 34.3%
remaining at 24 h [2]: 12.1%

CC(=O)N[C@@H](Cc1ccccc1)C(=O)N[C@@H](CCC(N)=O)C(=O)N[C@@H](CO)C(=O)N[C@@H](CCCCN)C(=O)N1CCC[C@@H]1C(=O)N[C@@H](CC(N)=O)C(=O)N[C@H](C(=O)N[C@@H](Cc1cnc[nH]1)C(=O)N[C@H](C(=O)N[C@@H](CC(=O)O)C(=O)NCC(=O)N[C@@H](Cc1ccc(O)cc1)C(=O)N[C@@H](Cc1csc2ccccc12)C(=O)N[C@@H](CCC(=O)O)C(=O)N[C@@H](CCCNC(=N)N)C(=O)N[C@@H](CC(C)C)C(=O)NC(C)(C)C(=O)N[C@@H](C)C(=O)N[C@@H](CCCCN)C(=O)N[C@@H](CC(C)C)C(N)=O)C(C)C)C(C)C
remaining at 24 h [1]: 6.1%
remaining at 24 h [2]: 46.6%

CC(C)C[C@H](NC(=O)[C@H](CCCCN)NC(=O)[C@H](C)NC(=O)C(C)(C)NC(=O)[C@H](CC(C)C)NC(=O)[C@H](CCCNC(=N)N)NC(=O)[C@H](CCC(=O)O)NC(=O)[C@H](Cc1ccccc1)NC(=O)[C@H](Cc1ccc(O)cc1)NC(=O)[C@@H](C)NC(=O)[C@H](CC(=O)O)NC(=O)[C@@H](NC(=O)[C@H](Cc1cnc[nH]1)NC(=O)[C@@H](NC(=O)[C@H](CC(N)=O)NC(=O)[C@H]1CCCN1C(=O)[C@H](CCCCN)NC(=O)[C@H](CO)NC(=O)[C@H](CCC(N)=O)NC(=O)[C@H](Cc1ccccc1)NS(=O)(=O)c1cccc2ccccc12)C(C)C)C(C)(C)C)C(N)=O
remaining at 24 h [1]: 52%
remaining at 24 h [2]: 107%

CC(=O)N[C@@H](Cc1ccccc1)C(=O)N[C@@H](CCC(N)=O)C(=O)N[C@@H](CO)C(=O)N[C@@H](CCCCN)C(=O)N1CCC[C@@H]1C(=O)N[C@@H](CC(N)=O)C(=O)N[C@H](C(=O)N[C@@H](Cc1cnc[nH]1)C(=O)N[C@H](C(=O)N[C@@H](CC(=O)O)C(=O)NCC(=O)N[C@@H](Cc1ccc(O)cc1)C(=O)N[C@@H](Cc1ccccc1)C(=O)N[C@@H](CCC(=O)O)C(=O)N[C@@H](CCCNC(=N)N)C(=O)N[C@@H](CC(C)C)C(=O)NC(C)(C)C(=O)N[C@@H](C)C(=O)N[C@@H](CCCCN)C(=O)N[C@@H](CC(C)C)C(N)=O)C(C)(C)C)C(C)C (Ac-FQSK[dP]NVH[Tle]DGYFERL[Aib]AKL-NH2)
remaining at 24 h [1]: 42.6%
remaining at 24 h [2]: 81.9%

CC(=O)N[C@@H](Cc1ccccc1)C(=O)N[C@@H](CCC(N)=O)C(=O)N[C@@H](CO)C(=O)N[C@@H](CCCCN)C(=O)N1CCC[C@@H]1C(=O)N[C@@H](CC(N)=O)C(=O)N[C@H](C(=O)N[C@@H](Cc1ccc2ccccc2c1)C(=O)N[C@H](C(=O)N[C@@H](CC(=O)O)C(=O)N[C@H](C)C(=O)N[C@@H](Cc1ccc(O)cc1)C(=O)N[C@@H](Cc1ccccc1)C(=O)N[C@@H](CCC(=O)O)C(=O)N[C@@H](CCCNC(=N)N)C(=O)N[C@@H](CC(C)C)C(=O)NC(C)(C)C(=O)N[C@@H](C)C(=O)N[C@@H](CCCCN)C(=O)N[C@@H](CC(C)C)C(N)=O)C(C)(C)C)C(C)C
remaining at 24 h [1]: 51.1%
remaining at 24 h [2]: 88.8%

CCCC[C@H](NC(=O)C(C)(C)NC(=O)[C@H](CC(C)C)NC(=O)[C@H](CCCNC(=N)N)NC(=O)[C@H](CCC(=O)O)NC(=O)[C@H](Cc1ccccc1)NC(=O)[C@H](Cc1ccc(O)cc1)NC(=O)CNC(=O)[C@H](CC(=O)O)NC(=O)[C@@H](NC(=O)[C@H](Cc1cnc[nH]1)NC(=O)[C@@H](NC(=O)[C@H](CC(N)=O)NC(=O)[C@H]1CCCN1C(=O)[C@H](CCCCN)NC(=O)[C@H](CO)NC(=O)[C@H](CCC(N)=O)NC(=O)[C@H](Cc1ccccc1)NC(C)=O)C(C)C)C(C)(C)C)C(=O)N[C@@H](CCCCN)C(=O)N[C@@H](CC(C)C)C(N)=O
remaining at 24 h [1]: 17%
remaining at 24 h [2]: 90.1%

CC(=O)N[C@@H](Cc1ccccc1)C(=O)N[C@@H](CCC(N)=O)C(=O)N[C@@H](CO)C(=O)N[C@@H](CCCCN)C(=O)N1CCC[C@@H]1C(=O)N[C@@H](CC(N)=O)C(=O)N[C@H](C(=O)N[C@@H](Cc1cnc[nH]1)C(=O)N[C@H](C(=O)N[C@@H](CC(=O)O)C(=O)N[C@H](C)C(=O)N[C@@H](Cc1ccc(O)cc1)C(=O)N[C@@H](Cc1ccccc1)C(=O)N[C@@H](CCC(=O)O)C(=O)N[C@@H](CCCNC(=N)N)C(=O)N[C@@H](CC(C)C)C(=O)NC(C)(C)C(=O)N[C@@H](C)C(=O)N[C@@H](CCCCN)C(=O)N[C@@H](CC(C)C)C(N)=O)C(C)(C)C)C(C)C
remaining at 24 h [1]: 47.2%
remaining at 24 h [2]: 100%

CC(=O)N[C@@H](Cc1ccccc1)C(=O)N[C@@H](CCC(N)=O)C(=O)N[C@@H](CO)C(=O)N[C@@H](CCCCN)C(=O)N1CCC[C@@H]1C(=O)N[C@@H](CC(N)=O)C(=O)N[C@H](C(=O)N[C@@H](Cc1cnc[nH]1)C(=O)N[C@H](C(=O)N[C@@H](CC(=O)O)C(=O)NCC(=O)N[C@@H](Cc1ccc(O)cc1)C(=O)N[C@@H](Cc1ccccc1)C(=O)N[C@@H](CCC(=O)O)C(=O)N[C@@H](CCCNC(=N)N)C(=O)N[C@@H](CC(C)C)C(=O)NC(C)(C)C(=O)N[C@@H](CC(C)C)C(=O)N[C@@H](CCCCN)C(=O)N[C@@H](CC(C)C)C(N)=O)C(C)(C)C)C(C)C
remaining at 24 h [1]: 13.7%
remaining at 24 h [2]: 78.7%

CC(=O)N[C@@H](Cc1cccs1)C(=O)N[C@@H](CCC(N)=O)C(=O)N[C@@H](CO)C(=O)N[C@@H](CCCCN)C(=O)N1CCC[C@@H]1C(=O)N[C@@H](CC(N)=O)C(=O)N[C@H](C(=O)N[C@@H](Cc1cnc[nH]1)C(=O)N[C@H](C(=O)N[C@@H](CC(=O)O)C(=O)NCC(=O)N[C@@H](Cc1ccc(O)cc1)C(=O)N[C@@H](Cc1ccccc1)C(=O)N[C@@H](CCC(=O)O)C(=O)N[C@@H](CCCNC(=N)N)C(=O)N[C@@H](CC(C)C)C(=O)NC(C)(C)C(=O)N[C@@H](C)C(=O)N[C@@H](CCCCN)C(=O)N[C@@H](CC(C)C)C(N)=O)C(C)C)C(C)C
remaining at 24 h [1]: 1.2%
remaining at 24 h [2]: 19.8%

CCCCCCCCCCCCCCCC(=O)NCCCOCCOCCOCCCNC(=O)CCNC(=O)CCC(=O)NCCCC[C@H](NC(=O)[C@H](CC(C)C)NC(=O)[C@H](CCCCN)NC(=O)[C@H](C)NC(=O)C(C)(C)NC(=O)[C@H](CC(C)C)NC(=O)[C@H](CCCNC(=N)N)NC(=O)[C@H](CCC(=O)O)NC(=O)[C@H](Cc1ccccc1)NC(=O)[C@H](Cc1ccc(O)cc1)NC(=O)[C@@H](C)NC(=O)[C@H](CC(=O)O)NC(=O)[C@@H](NC(=O)[C@H](Cc1cnc[nH]1)NC(=O)[C@@H](NC(=O)[C@H](CSCNC(C)=O)NC(=O)[C@H]1CCCN1C(=O)[C@H](CCCCN)NC(=O)[C@H](CO)NC(=O)[C@H](CCC(N)=O)NC(=O)[C@H](Cc1ccccc1)NC(=O)CCCCC)C(C)C)C(C)(C)C)C(N)=O
remaining at 24 h [1]: 67.5%
remaining at 24 h [2]: 108%

Reference: ChEMBL document CHEMBL4420062, “Tfpi inhibitors and methods of use” (2013)
